Experiments:
NaAtm1 [1] = target: T1, NaAtm1 (Novosphingobium aromaticivorans, UniProt Q2G506); assay: ligand-stimulated ATPase activity; assay type: biochemical; conditions: ATP hydrolysis
T1 sequence (Q2G506 1-608): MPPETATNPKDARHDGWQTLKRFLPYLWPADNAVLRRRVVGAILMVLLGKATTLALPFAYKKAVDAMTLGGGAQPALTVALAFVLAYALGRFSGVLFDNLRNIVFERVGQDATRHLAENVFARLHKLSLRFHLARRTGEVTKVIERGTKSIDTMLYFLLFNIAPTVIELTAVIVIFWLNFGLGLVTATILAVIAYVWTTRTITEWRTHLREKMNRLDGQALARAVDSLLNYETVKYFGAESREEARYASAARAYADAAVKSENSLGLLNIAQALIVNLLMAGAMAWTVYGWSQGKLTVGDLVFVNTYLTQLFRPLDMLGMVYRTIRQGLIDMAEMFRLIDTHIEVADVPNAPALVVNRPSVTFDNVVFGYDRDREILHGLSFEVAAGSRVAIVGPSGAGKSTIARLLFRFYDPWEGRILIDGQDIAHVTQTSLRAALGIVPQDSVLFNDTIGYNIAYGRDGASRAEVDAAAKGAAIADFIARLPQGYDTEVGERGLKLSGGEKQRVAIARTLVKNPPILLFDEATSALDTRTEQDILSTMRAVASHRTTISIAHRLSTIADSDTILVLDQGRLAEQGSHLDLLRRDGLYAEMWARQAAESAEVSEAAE

NaAtm1 [2] = target: T1, NaAtm1; assay: ligand-stimulated ATPase activity, Michaelis-Menten type analysis; assay type: biochemical; conditions: ATP hydrolysis; stimulating ligand varied

N[C@@H](CS)C(=O)NCC(=O)O [Cys-Gly]
ATPase stimulation (NaAtm1 [1]): exhibit stronger ATPase activities relative to Cys-Gly and mono-carboxylic acids

CSCC[C@H](N)C(=O)O [Met]
ATPase stimulation (NaAtm1 [1]): free amino acids Gly and Met to stimulate ATPase activity as effectively as GSH

N[C@@H](CCC(=O)N[C@@H](CS)C(=O)O)C(=O)O [γ-Glu-Cys]
Km (NaAtm1 [2]): γ-peptides GSH, γ-Glu-Cys, and ophthalmic acid
